{"source": "ChEMBL document CHEMBL5465560", "about": "“Selectivity Literature for EUbOPEN Chemogenomic Library” (2024)", "key": {"[1]": {"biological_target": "Inhibitor of nuclear factor kappa-B kinase subunit epsilon (Homo sapiens, UniProt Q14164)", "sequence (Q14164 whole entry)": "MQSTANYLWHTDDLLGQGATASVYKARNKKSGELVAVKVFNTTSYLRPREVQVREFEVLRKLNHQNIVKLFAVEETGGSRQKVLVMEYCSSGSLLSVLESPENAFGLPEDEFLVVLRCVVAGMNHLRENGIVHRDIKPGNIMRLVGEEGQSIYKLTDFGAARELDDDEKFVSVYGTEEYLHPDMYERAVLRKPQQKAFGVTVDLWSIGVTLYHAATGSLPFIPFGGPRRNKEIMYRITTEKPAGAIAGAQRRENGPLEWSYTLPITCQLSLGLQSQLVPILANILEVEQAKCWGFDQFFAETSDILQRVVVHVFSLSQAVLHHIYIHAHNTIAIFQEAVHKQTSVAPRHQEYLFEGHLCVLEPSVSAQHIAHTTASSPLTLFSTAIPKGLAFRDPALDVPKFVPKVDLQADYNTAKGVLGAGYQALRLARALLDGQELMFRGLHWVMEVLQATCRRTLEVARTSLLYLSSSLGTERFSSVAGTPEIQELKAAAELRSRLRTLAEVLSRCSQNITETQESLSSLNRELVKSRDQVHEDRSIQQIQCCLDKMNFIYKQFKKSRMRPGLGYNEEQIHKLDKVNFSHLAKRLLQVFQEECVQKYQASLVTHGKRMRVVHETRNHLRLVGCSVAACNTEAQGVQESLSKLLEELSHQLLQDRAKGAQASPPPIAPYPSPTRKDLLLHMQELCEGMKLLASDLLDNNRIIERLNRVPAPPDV", "assay": "Selectivity interaction (Enyzmatic assay) EUB0000601a IKBKE"}, "[2]": {"biological_target": "T1, Cyclin-G-associated kinase (Homo sapiens) (UniProt O14976)", "T1 sequence (whole entry)": "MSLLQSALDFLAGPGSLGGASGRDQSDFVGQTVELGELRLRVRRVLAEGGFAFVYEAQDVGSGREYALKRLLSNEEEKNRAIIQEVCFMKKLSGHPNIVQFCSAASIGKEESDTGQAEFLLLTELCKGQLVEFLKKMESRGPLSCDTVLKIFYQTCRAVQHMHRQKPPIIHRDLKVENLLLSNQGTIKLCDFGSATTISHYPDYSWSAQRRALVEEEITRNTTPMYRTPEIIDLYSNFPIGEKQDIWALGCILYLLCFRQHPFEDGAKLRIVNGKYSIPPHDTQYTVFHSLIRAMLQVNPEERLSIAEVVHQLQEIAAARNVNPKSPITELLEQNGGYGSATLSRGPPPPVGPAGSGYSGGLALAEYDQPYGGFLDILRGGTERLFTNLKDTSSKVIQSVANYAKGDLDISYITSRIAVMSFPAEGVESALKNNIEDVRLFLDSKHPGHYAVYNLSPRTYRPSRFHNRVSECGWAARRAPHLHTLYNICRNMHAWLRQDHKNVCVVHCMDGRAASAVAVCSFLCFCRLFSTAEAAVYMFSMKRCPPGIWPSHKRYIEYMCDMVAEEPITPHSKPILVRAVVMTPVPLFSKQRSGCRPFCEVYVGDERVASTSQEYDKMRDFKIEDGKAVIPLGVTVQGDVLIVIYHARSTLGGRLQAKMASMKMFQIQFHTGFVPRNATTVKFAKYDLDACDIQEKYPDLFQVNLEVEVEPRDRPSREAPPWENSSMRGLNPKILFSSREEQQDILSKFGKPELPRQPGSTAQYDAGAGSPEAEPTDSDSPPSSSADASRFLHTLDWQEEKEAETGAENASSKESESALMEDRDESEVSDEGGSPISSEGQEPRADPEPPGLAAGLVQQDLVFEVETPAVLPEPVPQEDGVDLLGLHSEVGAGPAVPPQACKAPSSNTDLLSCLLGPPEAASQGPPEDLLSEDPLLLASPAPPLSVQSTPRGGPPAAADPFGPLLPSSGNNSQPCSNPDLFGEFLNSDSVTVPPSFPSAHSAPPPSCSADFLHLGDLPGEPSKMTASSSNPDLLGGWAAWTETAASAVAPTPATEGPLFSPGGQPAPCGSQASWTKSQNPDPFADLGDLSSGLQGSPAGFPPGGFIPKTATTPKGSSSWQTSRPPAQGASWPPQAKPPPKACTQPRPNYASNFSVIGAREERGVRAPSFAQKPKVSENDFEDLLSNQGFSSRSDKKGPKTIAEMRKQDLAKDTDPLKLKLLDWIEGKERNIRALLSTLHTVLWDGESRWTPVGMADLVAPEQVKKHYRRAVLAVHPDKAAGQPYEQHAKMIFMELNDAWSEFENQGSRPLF", "assay": "Selectivity interaction (KinomeScan (DiscoverX)) EUB0001049a GAK", "conditions": "at 1 µM"}, "[3]": {"biological_target": "5'-AMP-activated protein kinase catalytic subunit alpha-2 (Homo sapiens) (UniProt P54646)", "sequence (P54646 whole entry, looked up)": "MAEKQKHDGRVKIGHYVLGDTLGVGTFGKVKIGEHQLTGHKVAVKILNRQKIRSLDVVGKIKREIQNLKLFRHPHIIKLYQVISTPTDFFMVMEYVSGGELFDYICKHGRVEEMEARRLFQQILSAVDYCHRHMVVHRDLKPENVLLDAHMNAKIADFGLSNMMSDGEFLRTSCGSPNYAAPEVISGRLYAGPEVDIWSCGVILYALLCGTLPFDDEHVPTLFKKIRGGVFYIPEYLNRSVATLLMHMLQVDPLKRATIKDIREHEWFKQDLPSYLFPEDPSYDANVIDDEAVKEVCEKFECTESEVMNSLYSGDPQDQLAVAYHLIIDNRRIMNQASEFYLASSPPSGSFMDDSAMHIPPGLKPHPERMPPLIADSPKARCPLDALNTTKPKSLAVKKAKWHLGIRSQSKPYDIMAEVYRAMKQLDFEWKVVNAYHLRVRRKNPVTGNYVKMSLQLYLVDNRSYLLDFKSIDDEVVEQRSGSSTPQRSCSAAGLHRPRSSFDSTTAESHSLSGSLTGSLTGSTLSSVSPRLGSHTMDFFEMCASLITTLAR", "assay": "Selectivity interaction (KinomeScan (DiscoverX)) EUB0001049a PRKAA2", "conditions": "at 1 µM"}, "[4]": {"biological_target": "Cannabinoid receptor 2 (Homo sapiens) (UniProt P34972)", "assay": "Selectivity interaction (Panel of kinases, GPCRs, ion channels and transporters (enzymatic assay)) EUB0000266bCl CNR2"}, "[5]": {"biological_target": "MAP kinase-interacting serine/threonine-protein kinase 1 (Homo sapiens) (UniProt Q9BUB5)", "sequence (Q9BUB5 whole entry, looked up)": "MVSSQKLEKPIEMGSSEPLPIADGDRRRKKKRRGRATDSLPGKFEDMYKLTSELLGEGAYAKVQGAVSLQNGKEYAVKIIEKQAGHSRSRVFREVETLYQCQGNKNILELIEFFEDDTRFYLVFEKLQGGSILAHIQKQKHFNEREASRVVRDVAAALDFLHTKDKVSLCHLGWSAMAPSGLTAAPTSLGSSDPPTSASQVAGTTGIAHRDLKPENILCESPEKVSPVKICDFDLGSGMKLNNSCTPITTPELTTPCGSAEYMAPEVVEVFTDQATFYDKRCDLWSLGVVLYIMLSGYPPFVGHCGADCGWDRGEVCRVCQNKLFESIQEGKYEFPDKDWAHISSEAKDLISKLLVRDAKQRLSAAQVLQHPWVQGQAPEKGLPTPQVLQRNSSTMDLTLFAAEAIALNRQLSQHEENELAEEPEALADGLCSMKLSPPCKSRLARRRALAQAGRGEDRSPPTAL", "assay": "Selectivity interaction (Ambit KINOMEscan and KiNATiv profiling in Jurkat cells) EUB0000090b MKNK1", "format": "cell-based", "conditions": "at 1 µM"}, "[6]": {"biological_target": "Tyrosine-protein kinase receptor Tie-1 (Homo sapiens) (UniProt P35590)", "sequence (P35590 whole entry)": "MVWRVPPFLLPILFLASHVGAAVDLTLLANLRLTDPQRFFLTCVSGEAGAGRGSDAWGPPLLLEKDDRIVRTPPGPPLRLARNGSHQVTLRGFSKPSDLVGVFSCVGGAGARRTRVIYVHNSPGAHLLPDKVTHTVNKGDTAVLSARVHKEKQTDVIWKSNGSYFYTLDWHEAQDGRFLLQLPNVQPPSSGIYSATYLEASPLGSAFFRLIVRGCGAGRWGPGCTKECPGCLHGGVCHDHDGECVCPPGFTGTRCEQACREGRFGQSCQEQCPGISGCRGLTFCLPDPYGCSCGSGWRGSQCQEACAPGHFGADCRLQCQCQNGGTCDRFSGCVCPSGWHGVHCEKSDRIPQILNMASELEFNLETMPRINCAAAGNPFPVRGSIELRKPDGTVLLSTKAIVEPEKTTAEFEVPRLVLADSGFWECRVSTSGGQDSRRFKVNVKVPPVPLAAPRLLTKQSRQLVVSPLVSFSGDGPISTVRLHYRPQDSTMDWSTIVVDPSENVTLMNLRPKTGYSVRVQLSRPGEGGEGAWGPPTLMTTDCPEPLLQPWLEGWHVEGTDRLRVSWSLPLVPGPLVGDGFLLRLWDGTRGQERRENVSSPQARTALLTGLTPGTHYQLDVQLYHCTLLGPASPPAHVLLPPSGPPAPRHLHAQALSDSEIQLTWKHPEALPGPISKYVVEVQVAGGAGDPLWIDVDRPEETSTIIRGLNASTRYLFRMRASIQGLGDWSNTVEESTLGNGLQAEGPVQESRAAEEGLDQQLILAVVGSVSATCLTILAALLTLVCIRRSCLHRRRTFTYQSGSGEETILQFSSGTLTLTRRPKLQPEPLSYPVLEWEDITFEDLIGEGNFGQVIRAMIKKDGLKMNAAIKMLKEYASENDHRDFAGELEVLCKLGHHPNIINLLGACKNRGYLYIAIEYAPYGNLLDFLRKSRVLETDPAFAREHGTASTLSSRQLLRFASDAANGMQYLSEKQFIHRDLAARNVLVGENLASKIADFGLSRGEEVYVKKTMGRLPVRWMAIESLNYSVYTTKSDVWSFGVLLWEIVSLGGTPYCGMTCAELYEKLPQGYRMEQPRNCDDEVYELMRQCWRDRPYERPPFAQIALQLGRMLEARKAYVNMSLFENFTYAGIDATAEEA", "assay": "Selectivity interaction (KinomeScan (DiscoverX)) EUB0001079a TIE1", "conditions": "at 1 µM"}, "[7]": {"biological_target": "T1, Cyclin-G-associated kinase (Homo sapiens)", "assay": "Selectivity interaction (KinomeScan (DiscoverX)) EUB0000092b GAK", "conditions": "at 10 µM"}, "[8]": {"biological_target": "T2, Tyrosine-protein kinase ITK/TSK (Homo sapiens) (UniProt Q08881)", "T2 sequence (whole entry)": "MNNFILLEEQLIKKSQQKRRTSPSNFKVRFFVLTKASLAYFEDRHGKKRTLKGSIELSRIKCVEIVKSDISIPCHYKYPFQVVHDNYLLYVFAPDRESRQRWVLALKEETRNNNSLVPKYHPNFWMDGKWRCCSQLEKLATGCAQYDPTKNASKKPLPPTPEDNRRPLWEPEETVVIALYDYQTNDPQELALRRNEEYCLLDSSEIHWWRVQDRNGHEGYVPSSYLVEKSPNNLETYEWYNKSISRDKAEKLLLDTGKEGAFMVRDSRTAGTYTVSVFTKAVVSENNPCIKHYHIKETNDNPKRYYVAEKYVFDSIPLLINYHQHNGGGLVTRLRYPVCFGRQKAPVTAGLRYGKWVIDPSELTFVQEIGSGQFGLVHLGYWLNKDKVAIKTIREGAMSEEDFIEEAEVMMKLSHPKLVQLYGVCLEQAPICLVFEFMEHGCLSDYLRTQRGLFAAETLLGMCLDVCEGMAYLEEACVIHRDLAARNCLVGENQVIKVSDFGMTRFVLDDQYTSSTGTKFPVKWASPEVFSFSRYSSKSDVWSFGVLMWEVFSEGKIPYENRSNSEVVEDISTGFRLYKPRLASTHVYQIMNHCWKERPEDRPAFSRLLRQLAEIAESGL", "assay": "Selectivity interaction (KinomeScan (DiscoverX)) EUB0001619a ITK", "conditions": "at 1 µM"}, "[9]": {"biological_target": "Tyrosine-protein kinase JAK1 (Homo sapiens, UniProt P23458)", "sequence (P23458 whole entry)": "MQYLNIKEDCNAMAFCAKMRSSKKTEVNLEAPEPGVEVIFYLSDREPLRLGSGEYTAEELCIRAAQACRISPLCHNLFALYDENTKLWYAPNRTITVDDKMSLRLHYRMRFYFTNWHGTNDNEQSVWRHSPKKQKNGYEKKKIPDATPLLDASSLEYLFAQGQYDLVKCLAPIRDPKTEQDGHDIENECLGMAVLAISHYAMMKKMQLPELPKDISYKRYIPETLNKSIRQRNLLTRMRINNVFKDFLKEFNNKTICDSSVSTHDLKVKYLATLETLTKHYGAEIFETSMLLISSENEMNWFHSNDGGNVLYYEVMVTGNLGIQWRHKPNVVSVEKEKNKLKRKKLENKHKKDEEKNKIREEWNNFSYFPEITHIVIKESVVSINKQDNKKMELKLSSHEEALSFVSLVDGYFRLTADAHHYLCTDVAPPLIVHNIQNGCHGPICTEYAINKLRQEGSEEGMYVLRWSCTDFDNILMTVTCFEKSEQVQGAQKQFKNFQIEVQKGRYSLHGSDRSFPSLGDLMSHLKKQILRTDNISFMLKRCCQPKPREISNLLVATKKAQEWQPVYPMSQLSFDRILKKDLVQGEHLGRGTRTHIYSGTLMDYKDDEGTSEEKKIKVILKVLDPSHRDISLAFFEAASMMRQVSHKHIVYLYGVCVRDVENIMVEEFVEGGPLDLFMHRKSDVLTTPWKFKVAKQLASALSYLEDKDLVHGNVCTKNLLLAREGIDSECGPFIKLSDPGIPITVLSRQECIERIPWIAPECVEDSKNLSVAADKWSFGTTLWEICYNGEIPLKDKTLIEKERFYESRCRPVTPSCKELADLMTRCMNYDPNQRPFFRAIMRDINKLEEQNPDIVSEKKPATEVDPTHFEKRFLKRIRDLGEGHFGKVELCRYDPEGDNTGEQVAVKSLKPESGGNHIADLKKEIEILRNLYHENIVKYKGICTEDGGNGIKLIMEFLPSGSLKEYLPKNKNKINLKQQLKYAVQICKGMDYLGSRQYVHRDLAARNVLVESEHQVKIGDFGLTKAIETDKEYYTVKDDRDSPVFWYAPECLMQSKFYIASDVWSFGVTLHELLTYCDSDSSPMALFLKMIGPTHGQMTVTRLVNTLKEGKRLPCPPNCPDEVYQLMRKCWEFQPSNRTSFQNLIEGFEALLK", "assay": "Selectivity interaction (ActivX KiNativ screen (ex vivo kinase selectivity in human PBMCs)) EUB0001619a JAK1", "format": "cell-based", "conditions": "PBMC, at 1 µM"}, "[10]": {"biological_target": "Serine/threonine-protein kinase MARK2 (Homo sapiens) (UniProt Q7KZI7)", "assay": "Selectivity interaction (ActivX KiNativ screen (ex vivo kinase selectivity in human PBMCs)) EUB0001619a MARK2", "format": "cell-based", "conditions": "PBMC, at 1 µM"}, "[11]": {"biological_target": "Ribosomal protein S6 kinase alpha-2 (Homo sapiens) (UniProt Q15349)", "sequence (Q15349 whole entry)": "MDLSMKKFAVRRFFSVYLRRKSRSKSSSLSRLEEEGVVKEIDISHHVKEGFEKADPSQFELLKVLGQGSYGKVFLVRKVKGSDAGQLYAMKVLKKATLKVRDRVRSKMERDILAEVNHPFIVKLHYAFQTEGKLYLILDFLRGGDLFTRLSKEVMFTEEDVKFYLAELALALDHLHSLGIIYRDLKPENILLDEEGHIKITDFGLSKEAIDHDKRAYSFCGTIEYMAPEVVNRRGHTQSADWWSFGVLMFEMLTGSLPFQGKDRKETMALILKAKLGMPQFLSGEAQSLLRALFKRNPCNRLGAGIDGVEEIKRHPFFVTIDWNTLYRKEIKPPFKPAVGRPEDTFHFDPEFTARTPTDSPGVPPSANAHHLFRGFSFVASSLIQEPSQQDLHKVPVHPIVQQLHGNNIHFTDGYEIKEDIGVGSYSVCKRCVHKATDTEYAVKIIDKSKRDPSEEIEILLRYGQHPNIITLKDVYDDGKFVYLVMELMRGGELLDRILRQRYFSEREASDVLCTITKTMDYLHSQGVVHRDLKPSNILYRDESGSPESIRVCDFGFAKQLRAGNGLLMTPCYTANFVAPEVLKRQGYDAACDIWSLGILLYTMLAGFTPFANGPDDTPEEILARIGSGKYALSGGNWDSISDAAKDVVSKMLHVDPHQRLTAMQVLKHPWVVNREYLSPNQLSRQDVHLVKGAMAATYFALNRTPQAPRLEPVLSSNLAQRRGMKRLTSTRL", "assay": "Selectivity interaction (SelectScreen profiling (Invitrogen)) EUB0000607a RPS6KA2", "conditions": "at 2 µM"}}, "data": [{"compound": "CCc1cc(Nc2nccc(-c3c(-c4ccc(OC)c(C(=O)Nc5c(F)cccc5F)c4)nc4ccccn34)n2)c(OC)cc1N1CCC(N2CCN(S(C)(=O)=O)CC2)CC1", "values": [{"measurement": "IC50", "setting": "[1]", "result": 3.2, "unit": "µM"}]}, {"compound": "COc1cc(Nc2nc(C)cc(-c3cnn4nc(OC)ccc34)n2)cc(C(F)(F)F)c1", "values": [{"measurement": "% of control", "setting": "[2]", "result": 87, "unit": "%"}, {"measurement": "% of control", "setting": "[3]", "result": 100, "unit": "%"}]}, {"compound": "CCn1c(-c2nc3cc(C(=O)N4CCCC(N)C4)ccc3n2C)cc2ccccc21", "note": "(stereo unspecified)", "values": [{"measurement": "pXC50", "setting": "[4]", "result": "< 4", "unit": "M"}]}, {"compound": "CN(C)C/C=C/C(=O)Nc1ccc(C(=O)N2CCCC(Nc3ncc(Cl)c(-c4c[nH]c5ccccc45)n3)C2)cc1", "note": "(stereo unspecified)", "values": [{"measurement": "% of control", "setting": "[5]", "result": 100, "unit": "%"}]}, {"compound": "Nc1cnc(N2CCc3cc(S(=O)(=O)Nc4c(F)cc(Cl)cc4F)cc(N4CCCC4=O)c32)nc1", "note": "[TP-020n]", "values": [{"measurement": "% of control", "setting": "[6]", "result": 100, "unit": "%"}]}, {"compound": "CCC(=O)N1CCN(c2ccc(-n3c(=O)ccc4cnc5ccc(-c6cnc7ccccc7c6)cc5c43)cc2C(F)(F)F)CC1", "values": [{"measurement": "% of control", "setting": "[7]", "result": 57, "unit": "%"}]}, {"compound": "N#Cc1cccc(-c2c[nH]c3ncnc(N4CCOCC4)c23)c1", "values": [{"measurement": "% of control", "setting": "[8]", "result": 100, "unit": "%"}, {"measurement": "% of inhibition", "setting": "[9]", "result": 5, "unit": "%"}, {"measurement": "% of inhibition", "setting": "[10]", "result": 27, "unit": "%"}]}, {"compound": "CNC(=O)Nc1ccc(-c2nc(N3CC4CCC(C3)O4)c3cnn(C4CCC5(CC4)OCCO5)c3n2)cc1", "values": [{"measurement": "% of inhibition", "setting": "[11]", "result": -1, "unit": "%"}]}]}
